In ChEMBL document CHEMBL5356956, “Optimizing and characterizing 4-methyl substituted pyrazol-3-carboxamides leading to the peripheral cannabinoid 1 receptor inverse agonist TM38837” (Bioorg Med Chem Lett, 2024):
≈ marks a conversion by molar mass, not a printed value.

Key:
[1] = Solubility of compound; format: physicochemical
Cannabinoid receptor 1 [2] = target: T1, Cannabinoid receptor 1 (Homo sapiens, UniProt P21554); experiment: Inverse agonist activity at human CB1 receptor expressed in CHO-K1 cell membrane by GTP-gamma-S assay; format: functional, cell membranes
T1 sequence (P21554 whole entry): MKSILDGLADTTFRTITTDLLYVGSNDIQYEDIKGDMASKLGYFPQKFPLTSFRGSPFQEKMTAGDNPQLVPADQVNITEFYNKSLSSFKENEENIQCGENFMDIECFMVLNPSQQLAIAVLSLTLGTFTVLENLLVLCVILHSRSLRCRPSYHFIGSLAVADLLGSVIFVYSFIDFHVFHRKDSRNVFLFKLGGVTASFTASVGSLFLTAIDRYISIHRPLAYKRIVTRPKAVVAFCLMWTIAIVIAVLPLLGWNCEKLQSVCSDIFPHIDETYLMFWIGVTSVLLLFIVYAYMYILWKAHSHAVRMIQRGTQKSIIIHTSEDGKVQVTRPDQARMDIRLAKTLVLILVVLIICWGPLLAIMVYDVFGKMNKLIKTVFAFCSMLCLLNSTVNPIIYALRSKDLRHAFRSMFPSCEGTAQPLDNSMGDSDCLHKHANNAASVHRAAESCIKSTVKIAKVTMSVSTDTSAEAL

[3] = Lipophilicity, logD of compound by chromatographic analysis; format: physicochemical
[4] = Clearance in rat hepatocytes assessed per million cells; format: ADME, cell-based, Hepatocyte
CYP2C9 = CYP2C9 (Homo sapiens, UniProt P11712); experiment: Inhibition of CYP2C9 (unknown origin) at 10 uM relative to control; format: ADME
CYP2C9, sequence (P11712 whole entry): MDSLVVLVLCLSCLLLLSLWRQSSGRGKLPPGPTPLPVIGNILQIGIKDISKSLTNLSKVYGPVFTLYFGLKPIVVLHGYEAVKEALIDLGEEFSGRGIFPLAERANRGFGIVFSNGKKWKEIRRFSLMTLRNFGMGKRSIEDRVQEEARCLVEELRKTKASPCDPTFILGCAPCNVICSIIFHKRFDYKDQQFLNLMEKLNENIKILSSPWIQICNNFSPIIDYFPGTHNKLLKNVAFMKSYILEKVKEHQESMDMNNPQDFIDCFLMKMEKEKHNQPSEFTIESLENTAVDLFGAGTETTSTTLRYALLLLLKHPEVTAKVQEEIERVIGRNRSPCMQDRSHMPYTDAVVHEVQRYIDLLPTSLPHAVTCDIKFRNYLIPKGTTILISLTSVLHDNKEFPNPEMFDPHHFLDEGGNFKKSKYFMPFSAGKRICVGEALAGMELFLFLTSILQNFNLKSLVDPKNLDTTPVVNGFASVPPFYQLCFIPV

Cannabinoid receptor 1 [5] = target: T1, Cannabinoid receptor 1; experiment: Inverse agonist activity at human CB1 receptor expressed in African green monkey COS7 cells co-expressing G-protein in presence of CP55940 by IP3 assay; format: functional, cell membranes, Membrane
[6] = Subchronic toxicity in DIO mouse assessed as reduction in body weight at 10 mg/kg, po measured after 7 days; format: organism-based; set-up: scale not given: the % may be the effect or the level left; conditions: in vivo, 168 h, time 7 day
Cannabinoid receptor 2 = Cannabinoid receptor 2 (Homo sapiens, UniProt P34972); experiment: Inverse agonist activity at human CB2 receptor expressed in CHO-K1 cell membrane in presence of CP55940 by GTP-gamma-S assay; format: functional, cell membranes
Cannabinoid receptor 2, sequence (P34972 whole entry): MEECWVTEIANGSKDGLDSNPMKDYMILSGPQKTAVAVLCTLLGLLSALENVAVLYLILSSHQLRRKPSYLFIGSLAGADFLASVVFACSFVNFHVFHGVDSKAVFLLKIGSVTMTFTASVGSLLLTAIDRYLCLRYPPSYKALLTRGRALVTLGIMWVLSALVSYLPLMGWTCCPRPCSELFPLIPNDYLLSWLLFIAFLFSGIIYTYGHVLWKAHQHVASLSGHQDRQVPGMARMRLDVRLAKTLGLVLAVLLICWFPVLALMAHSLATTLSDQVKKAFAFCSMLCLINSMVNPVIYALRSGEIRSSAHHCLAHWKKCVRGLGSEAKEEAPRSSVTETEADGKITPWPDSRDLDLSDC

Cannabinoid receptor 1 [7] = target: T1, Cannabinoid receptor 1; experiment: Antagonist activity at human CB1 receptor expressed in CHO-K1 cell membrane in presence of CP55940 by GTP-gamma-S assay; format: functional, cell membranes

Structure (SMILES) | solubility [1] [µM] | IC50 (Cannabinoid receptor 1 [2]) [nM] | chromatographic logD [3] | CLH [4] [µL/min/1e6 cells] | inhibition at 10 µM (CYP2C9) [%] | IC50 (Cannabinoid receptor 1 [5]) [nM] | IC50 (Cannabinoid receptor 2) [nM] | IC50 (Cannabinoid receptor 1 [7]) [nM] | Activity [6] [%]
O=C(c1nn(-c2ccccc2Cl)c(-c2ccc(Cl)cc2)c1Cc1nn[nH]n1)N1CCC(Oc2ccc(Cl)cc2)CC1 | 204 (≈ 124 µg/mL) | 47 | 2.6 | 77 | 38 | 30 |  |  | 
C[C@@H]1CC(O)(c2ccccc2F)C[C@H](C)N1C(=O)c1nn(-c2ccccc2Cl)c(-c2ccc(Cl)cc2)c1CC(N)=O (some centres undefined) | 29 (≈ 17.3 µg/mL) | 0.7 | 3.6 |  |  |  |  |  | 
O=C(O)Cc1c(C(=O)N2CCC(Oc3cc(F)cc(F)c3)CC2)nn(-c2ccccc2Cl)c1-c1ccc(Cl)cc1 | 171 (≈ 100 µg/mL) |  | 3.2 |  |  | 8 |  |  | 
O=C(c1nn(-c2ccccc2Cl)c(-c2ccc(Cl)cc2)c1Cc1nn[nH]n1)N1CCC(Oc2ccc(OC(F)(F)F)cc2)CC1 | 115 (≈ 75.7 µg/mL) | 64 | 3 | 14 | 48 | 26 |  |  | 
O=C(c1nn(-c2ccccc2Cl)c(-c2ccc(Cl)cc2)c1Cc1nn[nH]n1)N1CCC(Oc2cccc(F)c2)CC1 | 500 (≈ 296 µg/mL) | 130 | 2.4 | 45 | 14 | 33 |  |  | 
O=C(O)Cc1c(C(=O)N2CCC(Oc3cccc(Cl)c3)CC2)nn(-c2ccccc2Cl)c1-c1ccc(Cl)cc1 |  | 51 | 2.8 | 32 |  | 10 |  |  | 
C[C@@H](NC(=O)c1nn(-c2ccccc2Cl)c(-c2ccc(Cl)cc2)c1CC(N)=O)c1ccc(C(F)(F)F)nc1 | 21 (≈ 11.8 µg/mL) | 0.4 | 3.3 | 6 |  |  |  |  | 
O=C(c1nn(-c2ccccc2Cl)c(-c2ccc(Cl)cc2)c1Cc1nn[nH]n1)N1CCC(Oc2cc(F)cc(F)c2)CC1 | 317 (≈ 194 µg/mL) | 69 | 2.6 | 16 | 32 | 23 |  |  | 
C[C@@H]1CC(O)(c2cccc(F)c2)C[C@H](C)N1C(=O)c1nn(-c2ccccc2Cl)c(-c2ccc(Cl)cc2)c1CC(N)=O (some centres undefined) | 79 (≈ 47 µg/mL) | 2.2 | 3.5 |  |  |  |  |  | 
C[C@@H](NC(=O)c1nn(-c2ccccc2Cl)c(-c2ccc(Cl)cc2)c1Cc1nnn[nH]1)c1cccc(F)c1 |  | 86 | 2.1 |  |  | 64 |  |  | 5.2
N#Cc1ccc(C2(O)CCN(C(=O)c3nn(-c4ccccc4Cl)c(-c4ccc(Cl)cc4)c3CC(N)=O)CC2)cc1 | 73 (≈ 41.9 µg/mL) | 0.7 | 2.5 |  |  |  |  |  | 
Cc1c(C(=O)NN2CCCCC2)nn(-c2ccc(Cl)cc2Cl)c1-c1ccc(Cl)cc1 [RIMONABANT] |  |  |  |  |  |  |  |  | 14.5
O=C(O)Cc1c(C(=O)N2CCC(Oc3cccc(C(F)(F)F)c3)CC2)nn(-c2ccccc2Cl)c1-c1ccc(Cl)cc1 | 500 (≈ 309 µg/mL) |  | 2.7 | 35 |  | 24 |  |  | 
CC(C)c1noc(C2(O)CCN(C(=O)c3nn(-c4ccccc4Cl)c(-c4ccc(Cl)cc4)c3CC(N)=O)CC2)n1 | 4 (≈ 2.33 µg/mL) | 0.6 | 3.2 | 65 |  |  |  |  | 
CCN1C(=O)OC2(CCN(C(=O)c3nn(-c4ccccc4Cl)c(-c4ccc(Cl)cc4)c3CC(N)=O)CC2)C1=O | 28 (≈ 16 µg/mL) | 1.3 | 2.7 | 21 |  |  |  |  | 
N#Cc1cccc(OC2CCN(C(=O)c3nn(-c4ccccc4Cl)c(-c4ccc(Cl)cc4)c3CC(=O)O)CC2)c1 | 107 (≈ 61.6 µg/mL) |  | 3.3 | 26 |  | 53 |  |  | 
O=C(O)Cc1c(C(=O)N2CCC(Oc3cccc(F)c3F)CC2)nn(-c2ccccc2Cl)c1-c1ccc(Cl)cc1 | 500 (≈ 293 µg/mL) |  | 2.5 |  |  | 15 |  |  | 
C[C@@H](NC(=O)c1nn(-c2ccccc2Cl)c(-c2ccc(Cl)cc2)c1Cc1nn[nH]n1)c1ccc(Br)cc1 |  |  | 2.4 |  |  | 72 |  |  | 
C[C@@H](NC(=O)c1nn(-c2ccccc2Cl)c(-c2ccc(Cl)cc2)c1Cc1nn[nH]n1)c1ccc(F)c(Cl)c1 |  | 63 | 2.8 |  |  | 32 |  |  | 2.4
O=C(O)Cc1c(C(=O)N2CCC(c3cccc(F)c3)CC2)nn(-c2ccccc2Cl)c1-c1ccc(Cl)cc1 |  | 32 | 2.7 |  |  | 2.6 | > 10000 | 8.1 | 
O=C(O)Cc1c(C(=O)N2CCC(Oc3ccc(F)cc3)CC2)nn(-c2ccccc2Cl)c1-c1ccc(Cl)cc1 | 118 (≈ 67.1 µg/mL) |  | 3.6 |  |  | 6 |  |  | 
NC(=O)Cc1c(C(=O)N2CCC(Oc3cccc(F)c3)CC2)nn(-c2ccccc2Cl)c1-c1ccc(Cl)cc1 | 9 (≈ 5.11 µg/mL) | 0.3 | 3.7 | 48 |  |  |  |  | 
O=C(O)Cc1c(C(=O)N2CCC(Oc3ccc(OC(F)(F)F)cc3)CC2)nn(-c2ccccc2Cl)c1-c1ccc(Cl)cc1 | 176 (≈ 112 µg/mL) |  | 3.2 |  |  | 10 |  |  | 
O=C(O)Cc1c(C(=O)N2CCC(Oc3ccc(Cl)cc3)CC2)nn(-c2ccccc2Cl)c1-c1ccc(Cl)cc1 |  | 30 | 2.7 | 7 |  | 11 |  |  | 
O=C(c1nn(-c2ccccc2Cl)c(-c2ccc(Cl)cc2)c1Cc1nn[nH]n1)N1CCC(Oc2ccc(F)cc2)CC1 | 500 (≈ 296 µg/mL) | 170 | 2.4 | 13 |  | 41 |  |  | 
CC(=O)N1CCC(NC(=O)c2nn(-c3ccccc3Cl)c(-c3ccc(Cl)cc3)c2CC(N)=O)CC1 | 51 (≈ 26.2 µg/mL) | 11 | 1.8 | 4 |  |  |  |  | 

Continued, in another order:

solubility [1] [µM] | IC50 (Cannabinoid receptor 1 [2]) [nM] | chromatographic logD [3] | CLH [4] [µL/min/1e6 cells] | inhibition at 10 µM (CYP2C9) [%] | IC50 (Cannabinoid receptor 1 [5]) [nM] | IC50 (Cannabinoid receptor 2) [nM] | IC50 (Cannabinoid receptor 1 [7]) [nM] | Structure (SMILES) | Activity [6] [%]
16 (≈ 8.07 µg/mL) | 0.3 | 2.9 |  |  |  |  |  | N#Cc1ccc(CNC(=O)c2nn(-c3ccccc3Cl)c(-c3ccc(Cl)cc3)c2CC(N)=O)cc1 | 
374 (≈ 231 µg/mL) |  | 3.1 | 17 |  | 7 |  |  | O=C(O)Cc1c(C(=O)N2CCC(Oc3ccc(C(F)(F)F)cc3)CC2)nn(-c2ccccc2Cl)c1-c1ccc(Cl)cc1 | 
500 (≈ 293 µg/mL) |  | 2.9 |  |  | 12 |  |  | O=C(O)Cc1c(C(=O)N2CCC(Oc3ccc(F)c(F)c3)CC2)nn(-c2ccccc2Cl)c1-c1ccc(Cl)cc1 | < 2
33 (≈ 19.1 µg/mL) | 1.9 | 2.8 | 17 |  |  |  |  | CC(C)S(=O)(=O)N1CCC(NC(=O)c2nn(-c3ccccc3Cl)c(-c3ccc(Cl)cc3)c2CC(N)=O)CC1 | 
64 (≈ 37.2 µg/mL) | 0.4 | 3 | 24 |  |  |  |  | C[C@@H]1C[C@](O)(c2cccc(F)c2)CCN1C(=O)c1nn(-c2ccccc2Cl)c(-c2ccc(Cl)cc2)c1CC(N)=O | 
201 (≈ 122 µg/mL) | 95 | 2.7 | 15 | 35 | 24 |  |  | O=C(c1nn(-c2ccccc2Cl)c(-c2ccc(Cl)cc2)c1Cc1nn[nH]n1)N1CCC(Oc2cccc(Cl)c2)CC1 | 
 |  | 2.9 |  |  |  |  |  | N=C(Cc1c(C(=O)NN2CCCCC2)nn(-c2ccccc2Cl)c1-c1ccc(Cl)cc1)NO | 
474 (≈ 273 µg/mL) | 130 | 2.5 | 33 |  | 23 |  |  | O=C(c1nn(-c2ccccc2Cl)c(-c2ccc(Cl)cc2)c1Cc1nn[nH]n1)N1CCC(c2ccccc2F)CC1 | 
61 (≈ 33.6 µg/mL) | 9.5 | 2.4 | 8 |  |  |  |  | CS(=O)(=O)N1CCC(NC(=O)c2nn(-c3ccccc3Cl)c(-c3ccc(Cl)cc3)c2CC(N)=O)CC1 | 
396 (≈ 242 µg/mL) | 110 | 2.5 | 14 |  | 61 |  |  | O=C(c1nn(-c2ccccc2Cl)c(-c2ccc(Cl)cc2)c1Cc1nn[nH]n1)N1CCC(Oc2cccc(F)c2F)CC1 | 
70 (≈ 40.2 µg/mL) | 0.4 | 2.6 |  |  |  |  |  | N#Cc1cccc(C2(O)CCN(C(=O)c3nn(-c4ccccc4Cl)c(-c4ccc(Cl)cc4)c3CC(N)=O)CC2)c1 | 
155 (≈ 88.1 µg/mL) |  | 3.3 |  |  | 15 |  |  | O=C(O)Cc1c(C(=O)N2CCC(Oc3cccc(F)c3)CC2)nn(-c2ccccc2Cl)c1-c1ccc(Cl)cc1 | < 2
 |  | 2.5 |  |  |  | > 10000 |  | N=C(N)Cc1c(C(=O)Nc2ccc(F)cc2)nn(-c2ccccc2Cl)c1-c1ccc(Cl)cc1 | 
421 (≈ 257 µg/mL) | 80 | 2.5 | 45 | 0 | 35 |  |  | O=C(c1nn(-c2ccccc2Cl)c(-c2ccc(Cl)cc2)c1Cc1nn[nH]n1)N1CCC(Oc2ccc(F)c(F)c2)CC1 | < 2
140 (≈ 89.9 µg/mL) | 120 | 2.9 | 12 |  | 23 |  |  | O=C(c1nn(-c2ccccc2Cl)c(-c2ccc(Cl)cc2)c1Cc1nn[nH]n1)N1CCC(Oc2ccc(C(F)(F)F)cc2)CC1 | 
62 (≈ 35.2 µg/mL) | 0.5 | 2.8 | 16 |  |  |  |  | NC(=O)Cc1c(C(=O)N2CCC(O)(c3cccc(F)c3)CC2)nn(-c2ccccc2Cl)c1-c1ccc(Cl)cc1 | 
83 (≈ 50 µg/mL) |  | 3.4 | 28 |  | 8 |  |  | O=C(O)Cc1c(C(=O)N2CCC(Oc3ccc(Cl)cc3F)CC2)nn(-c2ccccc2Cl)c1-c1ccc(Cl)cc1 | 
66 (≈ 37.5 µg/mL) | 0.5 | 2.8 |  |  |  |  |  | NC(=O)Cc1c(C(=O)N2CCC(O)(c3ccccc3F)CC2)nn(-c2ccccc2Cl)c1-c1ccc(Cl)cc1 | 
